Four molecules from article PMC8550792, “Evolution of kinase polypharmacology across HSP90 drug discovery” (Cell Chemical Biology, 2021) can be followed below.

Assay in all cases: biochemical
Assay type in all cases: biochemical

Experiment [1] deals with T1, 382 unique human kinases (Homo sapiens, UniProt Q13873).
T1 construct: purchased Reaction Biology (HotSpot contract assay)
T1 sequence (Q13873 27-1038): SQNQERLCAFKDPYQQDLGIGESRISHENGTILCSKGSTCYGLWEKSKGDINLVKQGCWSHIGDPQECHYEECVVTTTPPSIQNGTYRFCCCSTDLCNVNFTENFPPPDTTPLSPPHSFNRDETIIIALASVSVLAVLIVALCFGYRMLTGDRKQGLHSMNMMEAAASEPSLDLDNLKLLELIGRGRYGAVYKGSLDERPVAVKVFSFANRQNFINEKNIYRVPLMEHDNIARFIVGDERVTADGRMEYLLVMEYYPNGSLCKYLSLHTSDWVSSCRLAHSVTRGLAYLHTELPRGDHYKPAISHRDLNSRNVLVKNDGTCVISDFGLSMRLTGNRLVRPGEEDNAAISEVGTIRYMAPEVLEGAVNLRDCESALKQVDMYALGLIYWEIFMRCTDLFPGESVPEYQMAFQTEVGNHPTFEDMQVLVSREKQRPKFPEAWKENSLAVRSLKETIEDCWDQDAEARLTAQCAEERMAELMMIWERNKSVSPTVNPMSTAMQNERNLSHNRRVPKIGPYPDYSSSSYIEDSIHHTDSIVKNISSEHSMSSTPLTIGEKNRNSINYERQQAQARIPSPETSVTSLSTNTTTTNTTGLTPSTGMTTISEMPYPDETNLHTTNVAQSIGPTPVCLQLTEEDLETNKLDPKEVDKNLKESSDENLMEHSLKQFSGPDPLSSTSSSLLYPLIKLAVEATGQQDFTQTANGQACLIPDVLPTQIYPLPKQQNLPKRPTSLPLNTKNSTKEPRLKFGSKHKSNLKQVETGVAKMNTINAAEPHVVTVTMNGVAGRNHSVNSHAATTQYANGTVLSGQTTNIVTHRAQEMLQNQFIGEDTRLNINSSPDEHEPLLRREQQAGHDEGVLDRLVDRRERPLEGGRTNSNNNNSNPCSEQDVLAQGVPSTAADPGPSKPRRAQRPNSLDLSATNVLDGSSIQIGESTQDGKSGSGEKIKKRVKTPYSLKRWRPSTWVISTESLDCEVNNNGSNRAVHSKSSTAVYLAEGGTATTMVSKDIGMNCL
The conditions noted are these: BMPR2, 10 uM; for remaining activity at 10 µM: read-out: % Enzyme Activity (relative to DMSO controls).

Experiment [2] has as its target T2, 382 unique human kinases (Homo sapiens, UniProt Q02750, P124L).
T2 construct: purchased Reaction Biology (HotSpot contract assay)
The note with it: MEK1 (P124L), 10 uM; for remaining activity at 10 µM: read-out: % Enzyme Activity (relative to DMSO controls).

Experiment [3] addresses T3, 382 unique human kinases (Homo sapiens, UniProt P08581, Y1230H).
T3 construct: purchased Reaction Biology (HotSpot contract assay)
The note with it: c-MET (Y1230H), 10 uM; for remaining activity at 10 µM: read-out: % Enzyme Activity (relative to DMSO controls).

Experiment [4] deals with T4, 382 unique human kinases (Homo sapiens, UniProt Q9NYY3).
T4 construct: purchased Reaction Biology (HotSpot contract assay)
T4 sequence (Q9NYY3 whole entry): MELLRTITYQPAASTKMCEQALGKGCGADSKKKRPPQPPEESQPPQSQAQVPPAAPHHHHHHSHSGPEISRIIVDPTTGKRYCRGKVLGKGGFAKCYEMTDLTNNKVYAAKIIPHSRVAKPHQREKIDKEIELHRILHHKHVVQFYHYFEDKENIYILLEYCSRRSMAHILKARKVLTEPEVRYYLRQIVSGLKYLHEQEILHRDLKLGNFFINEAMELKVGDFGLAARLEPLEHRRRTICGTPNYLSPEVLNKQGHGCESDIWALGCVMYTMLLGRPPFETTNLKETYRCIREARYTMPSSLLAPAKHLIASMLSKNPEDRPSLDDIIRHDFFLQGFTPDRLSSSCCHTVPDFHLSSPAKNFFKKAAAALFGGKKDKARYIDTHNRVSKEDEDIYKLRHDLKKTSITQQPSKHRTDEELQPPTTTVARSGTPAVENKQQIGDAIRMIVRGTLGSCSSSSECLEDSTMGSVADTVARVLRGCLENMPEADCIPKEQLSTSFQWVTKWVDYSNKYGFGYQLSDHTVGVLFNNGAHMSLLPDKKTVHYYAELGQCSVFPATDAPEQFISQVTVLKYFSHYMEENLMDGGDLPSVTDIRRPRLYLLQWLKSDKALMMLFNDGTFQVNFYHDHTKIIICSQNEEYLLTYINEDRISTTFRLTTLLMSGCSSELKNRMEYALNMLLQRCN
The note with it: kinase PLK2, compound 10 uM; for remaining activity at 10 µM: read-out: % Enzyme Activity (relative to DMSO controls).

Experiment [5] has as its target T5, 382 unique human kinases (Homo sapiens, UniProt O00444).
T5 construct: purchased Reaction Biology (HotSpot contract assay)
T5 sequence (O00444 1-970): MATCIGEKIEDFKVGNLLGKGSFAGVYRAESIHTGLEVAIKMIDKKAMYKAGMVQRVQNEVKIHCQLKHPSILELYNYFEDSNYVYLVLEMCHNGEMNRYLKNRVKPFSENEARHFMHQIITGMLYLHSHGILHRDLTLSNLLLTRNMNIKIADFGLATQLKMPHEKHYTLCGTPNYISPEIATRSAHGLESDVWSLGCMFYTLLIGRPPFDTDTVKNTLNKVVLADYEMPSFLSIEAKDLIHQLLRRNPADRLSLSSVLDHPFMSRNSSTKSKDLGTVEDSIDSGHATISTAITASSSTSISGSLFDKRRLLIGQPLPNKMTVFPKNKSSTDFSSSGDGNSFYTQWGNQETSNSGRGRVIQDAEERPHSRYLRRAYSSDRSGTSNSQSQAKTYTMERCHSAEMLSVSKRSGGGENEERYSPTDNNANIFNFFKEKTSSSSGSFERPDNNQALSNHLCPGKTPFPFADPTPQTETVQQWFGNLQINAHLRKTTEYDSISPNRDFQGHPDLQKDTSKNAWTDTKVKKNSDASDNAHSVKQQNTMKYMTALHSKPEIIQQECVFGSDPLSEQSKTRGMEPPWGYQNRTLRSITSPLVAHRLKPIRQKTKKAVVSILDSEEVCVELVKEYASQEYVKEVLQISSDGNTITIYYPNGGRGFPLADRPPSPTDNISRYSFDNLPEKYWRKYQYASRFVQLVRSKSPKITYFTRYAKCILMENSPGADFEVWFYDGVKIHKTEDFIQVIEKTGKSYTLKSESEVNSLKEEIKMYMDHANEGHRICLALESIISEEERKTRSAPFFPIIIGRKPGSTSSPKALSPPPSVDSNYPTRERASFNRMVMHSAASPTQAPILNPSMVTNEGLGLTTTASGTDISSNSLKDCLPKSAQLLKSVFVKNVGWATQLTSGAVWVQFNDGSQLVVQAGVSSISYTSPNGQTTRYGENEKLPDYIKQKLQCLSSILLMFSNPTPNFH
The note with it: PLK4/SAK, 10 uM; for remaining activity at 10 µM: read-out: % Enzyme Activity (relative to DMSO controls).

The target in experiment [6] is T6, 382 unique human kinases (Homo sapiens, UniProt Q9P286).
T6 construct: purchased Reaction Biology (HotSpot contract assay)
T6 sequence (Q9P286 whole entry): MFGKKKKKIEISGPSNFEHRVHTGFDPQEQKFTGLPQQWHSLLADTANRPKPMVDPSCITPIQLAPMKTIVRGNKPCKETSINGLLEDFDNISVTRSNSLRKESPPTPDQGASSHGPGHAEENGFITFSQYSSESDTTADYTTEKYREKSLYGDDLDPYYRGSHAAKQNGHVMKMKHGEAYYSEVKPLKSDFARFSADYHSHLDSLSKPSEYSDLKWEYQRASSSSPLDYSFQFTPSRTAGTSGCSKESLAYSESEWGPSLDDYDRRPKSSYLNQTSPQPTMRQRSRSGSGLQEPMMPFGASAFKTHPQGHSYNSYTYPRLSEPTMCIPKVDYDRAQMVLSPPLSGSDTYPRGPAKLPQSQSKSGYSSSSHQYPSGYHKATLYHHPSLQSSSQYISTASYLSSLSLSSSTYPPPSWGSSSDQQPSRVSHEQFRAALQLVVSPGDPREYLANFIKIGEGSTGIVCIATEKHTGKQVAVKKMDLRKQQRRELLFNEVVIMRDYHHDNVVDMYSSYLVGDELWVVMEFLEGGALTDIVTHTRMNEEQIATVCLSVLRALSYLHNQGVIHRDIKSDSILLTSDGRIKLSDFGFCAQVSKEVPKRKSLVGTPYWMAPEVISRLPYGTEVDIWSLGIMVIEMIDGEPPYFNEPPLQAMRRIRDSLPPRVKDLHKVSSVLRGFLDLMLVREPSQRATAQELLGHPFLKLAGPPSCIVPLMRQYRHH
The conditions noted are these: PAK5, compound at 10 uM, duplicate values; for remaining activity at 10 µM: read-out: % Enzyme Activity (relative to DMSO controls).

Experiment [7] deals with T7, 382 unique human kinases (Homo sapiens, UniProt Q15569).
T7 construct: purchased Reaction Biology (HotSpot contract assay)
T7 sequence (Q15569 whole entry): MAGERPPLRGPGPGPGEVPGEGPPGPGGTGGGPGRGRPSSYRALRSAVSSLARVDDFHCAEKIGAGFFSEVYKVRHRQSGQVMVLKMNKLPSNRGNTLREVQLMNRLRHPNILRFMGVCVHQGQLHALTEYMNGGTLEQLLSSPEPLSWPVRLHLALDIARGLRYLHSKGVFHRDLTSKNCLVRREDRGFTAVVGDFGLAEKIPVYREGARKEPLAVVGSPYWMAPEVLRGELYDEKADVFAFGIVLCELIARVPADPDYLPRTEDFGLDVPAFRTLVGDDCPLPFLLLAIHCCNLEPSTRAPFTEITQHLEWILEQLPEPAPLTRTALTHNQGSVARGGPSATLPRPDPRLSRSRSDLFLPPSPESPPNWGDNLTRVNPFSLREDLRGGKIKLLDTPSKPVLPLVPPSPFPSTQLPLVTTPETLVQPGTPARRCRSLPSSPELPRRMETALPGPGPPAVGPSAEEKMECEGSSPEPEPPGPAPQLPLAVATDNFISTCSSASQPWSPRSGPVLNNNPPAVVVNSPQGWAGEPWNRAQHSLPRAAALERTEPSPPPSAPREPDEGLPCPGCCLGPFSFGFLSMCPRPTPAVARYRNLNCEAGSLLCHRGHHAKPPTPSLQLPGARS
The note with it: TESK1, compound at 10 uM, duplicate values; for remaining activity at 10 µM: read-out: % Enzyme Activity (relative to DMSO controls).

Experiment [8] deals with T8, 382 unique human kinases (Homo sapiens, UniProt P08631).
T8 construct: purchased Reaction Biology (HotSpot contract assay)
T8 sequence (P08631 whole entry): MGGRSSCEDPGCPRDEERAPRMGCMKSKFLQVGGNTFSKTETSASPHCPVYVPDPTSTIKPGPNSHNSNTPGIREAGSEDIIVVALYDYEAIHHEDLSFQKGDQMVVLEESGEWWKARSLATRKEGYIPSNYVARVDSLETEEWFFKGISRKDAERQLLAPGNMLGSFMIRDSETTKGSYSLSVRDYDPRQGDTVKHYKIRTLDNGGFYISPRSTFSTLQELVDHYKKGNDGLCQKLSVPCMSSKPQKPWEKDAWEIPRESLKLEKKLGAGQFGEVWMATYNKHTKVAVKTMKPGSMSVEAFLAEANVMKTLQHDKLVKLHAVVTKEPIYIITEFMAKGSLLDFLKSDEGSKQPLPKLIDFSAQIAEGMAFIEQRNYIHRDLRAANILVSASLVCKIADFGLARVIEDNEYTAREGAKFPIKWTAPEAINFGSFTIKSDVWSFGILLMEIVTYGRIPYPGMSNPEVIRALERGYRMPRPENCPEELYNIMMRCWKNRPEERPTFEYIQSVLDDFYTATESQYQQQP
The conditions noted are these: HCK, [ATP] 30 µM.

For experiment [9], the target named is T9, 382 unique human kinases (Homo sapiens, UniProt Q07912).
T9 construct: purchased Reaction Biology (HotSpot contract assay)
T9 sequence (Q07912 whole entry): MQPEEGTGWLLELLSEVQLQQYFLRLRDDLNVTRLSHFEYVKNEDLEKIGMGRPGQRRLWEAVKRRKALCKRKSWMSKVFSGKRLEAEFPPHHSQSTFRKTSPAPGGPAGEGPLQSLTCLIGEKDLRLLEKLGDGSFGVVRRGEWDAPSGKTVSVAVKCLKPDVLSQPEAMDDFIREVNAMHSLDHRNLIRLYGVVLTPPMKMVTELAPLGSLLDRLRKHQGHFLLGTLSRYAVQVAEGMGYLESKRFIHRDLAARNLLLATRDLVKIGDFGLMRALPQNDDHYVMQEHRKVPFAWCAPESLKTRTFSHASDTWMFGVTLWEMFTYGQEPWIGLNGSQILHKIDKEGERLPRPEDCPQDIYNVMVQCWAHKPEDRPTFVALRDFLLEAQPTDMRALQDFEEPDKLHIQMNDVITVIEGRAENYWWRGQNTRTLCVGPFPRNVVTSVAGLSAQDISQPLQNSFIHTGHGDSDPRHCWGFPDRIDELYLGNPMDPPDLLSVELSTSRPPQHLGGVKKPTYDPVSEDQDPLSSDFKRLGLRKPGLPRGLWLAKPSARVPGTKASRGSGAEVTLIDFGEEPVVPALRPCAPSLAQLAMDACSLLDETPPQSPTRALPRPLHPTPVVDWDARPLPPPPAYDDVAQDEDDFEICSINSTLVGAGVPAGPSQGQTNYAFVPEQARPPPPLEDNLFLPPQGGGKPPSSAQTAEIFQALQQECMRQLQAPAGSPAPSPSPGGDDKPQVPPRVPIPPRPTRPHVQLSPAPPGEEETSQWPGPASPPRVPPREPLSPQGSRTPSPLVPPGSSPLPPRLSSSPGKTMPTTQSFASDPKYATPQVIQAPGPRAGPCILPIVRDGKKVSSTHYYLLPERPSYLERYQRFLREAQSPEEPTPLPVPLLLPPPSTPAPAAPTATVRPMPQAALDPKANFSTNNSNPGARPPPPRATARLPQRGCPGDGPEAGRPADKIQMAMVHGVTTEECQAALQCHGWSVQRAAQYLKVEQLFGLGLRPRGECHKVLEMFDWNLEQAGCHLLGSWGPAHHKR
The note with it: ACK1, [ATP] 100 µM, compound 10 uM; for remaining activity at 10 µM: read-out: % Enzyme Activity (relative to DMSO controls).

Experiment [10] has as its target T10, 382 unique human kinases (Homo sapiens, UniProt P09769).
T10 construct: purchased Reaction Biology (HotSpot contract assay)
The conditions noted are these: FGR, [ATP] 50 µM.

Experiment [11] has as its target T11, 382 unique human kinases (Homo sapiens, UniProt Q13555).
T11 construct: purchased Reaction Biology (HotSpot contract assay)
The conditions noted are these: CAMK2g, 10 uM; for remaining activity at 10 µM: read-out: % Enzyme Activity (relative to DMSO controls).

Where [12] appears, read: compound 1 uM, read-out: % Enzyme Activity (relative to DMSO controls).
Where [13] appears, read: compound 10 uM, read-out: % Enzyme Activity (relative to DMSO controls).

T11 sequence (Q13555 whole entry): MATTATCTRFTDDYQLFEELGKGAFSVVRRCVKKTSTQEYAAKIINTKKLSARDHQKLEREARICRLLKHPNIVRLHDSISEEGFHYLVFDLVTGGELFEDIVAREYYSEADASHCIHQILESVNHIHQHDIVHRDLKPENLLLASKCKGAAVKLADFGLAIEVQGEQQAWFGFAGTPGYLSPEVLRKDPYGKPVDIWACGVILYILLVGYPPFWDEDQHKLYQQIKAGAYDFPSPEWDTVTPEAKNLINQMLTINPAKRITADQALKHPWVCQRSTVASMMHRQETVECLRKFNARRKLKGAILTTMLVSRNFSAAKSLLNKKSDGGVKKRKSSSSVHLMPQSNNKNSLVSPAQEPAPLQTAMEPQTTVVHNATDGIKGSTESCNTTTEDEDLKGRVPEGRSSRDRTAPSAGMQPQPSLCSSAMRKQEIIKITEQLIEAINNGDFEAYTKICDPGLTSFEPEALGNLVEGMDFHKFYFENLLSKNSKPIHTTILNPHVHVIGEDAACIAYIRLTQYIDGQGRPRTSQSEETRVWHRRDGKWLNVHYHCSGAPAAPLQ
T10 sequence (P09769 whole entry): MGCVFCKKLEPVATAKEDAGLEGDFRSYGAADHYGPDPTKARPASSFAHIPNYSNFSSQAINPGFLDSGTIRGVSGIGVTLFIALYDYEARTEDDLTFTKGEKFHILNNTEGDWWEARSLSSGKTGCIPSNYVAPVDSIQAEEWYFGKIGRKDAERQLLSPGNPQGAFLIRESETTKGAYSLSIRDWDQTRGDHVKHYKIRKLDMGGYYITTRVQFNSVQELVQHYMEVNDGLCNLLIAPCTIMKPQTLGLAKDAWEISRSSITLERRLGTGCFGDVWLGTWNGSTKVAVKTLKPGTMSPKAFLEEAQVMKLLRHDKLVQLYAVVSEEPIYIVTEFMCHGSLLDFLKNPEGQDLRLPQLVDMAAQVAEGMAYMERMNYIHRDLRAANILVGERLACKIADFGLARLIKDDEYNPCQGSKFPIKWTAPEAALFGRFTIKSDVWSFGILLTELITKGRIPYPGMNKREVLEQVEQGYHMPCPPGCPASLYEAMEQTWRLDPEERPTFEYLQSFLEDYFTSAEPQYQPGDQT

Regarding `CC(C)c1cc(-c2n[nH]c(=O)n2-c2ccc3c(ccn3C)c2)c(O)cc1O` [Ganetespib (STA9090)], the remaining activity at 10 µM at 382 unique human kinases [1] worked out at 65.3%; on 382 unique human kinases [2], 73.7%; on 382 unique human kinases [3], 108%; on 382 unique human kinases [4], 86.1%; at 382 unique human kinases [5], 78.2%; at 382 unique human kinases [6], 119%. The remaining activity at 10 µM on 382 unique human kinases [7] is 101%.

Turning to `CC(C)c1cc(-c2n[nH]c(=O)n2-c2ccc3c(ccn3C)c2)c(O)cc1O` [Ganetespib], the values for the remaining activity at 1 µM on 382 unique human kinases [8] (setting [12]) and at 382 unique human kinases [10] (setting [12]) were 77.7% and 47.5%, respectively. The remaining activity at 10 µM amounted to 14.5% on 382 unique human kinases [8] (setting [13]), 47% at 382 unique human kinases [9], 14.4% on 382 unique human kinases [10] (setting [13]) and 98.8% on 382 unique human kinases [11].

In the case of `CCNC(=O)c1noc(-c2cc(C(C)C)c(O)cc2O)c1-c1ccc(CN2CCOCC2)cc1` [Luminespib (AUY-922)], the “% Enzyme Activity (relative to DMSO controls)” value on 382 unique human kinases [1] worked out at 104.76%; at 382 unique human kinases [2] it was 99.77%; on 382 unique human kinases [3], 78.17%; at 382 unique human kinases [4], 105.08%; at 382 unique human kinases [5] it was 86.84%; at 382 unique human kinases [6] it was 107.77%. Besides, the “% Enzyme Activity (relative to DMSO controls)” value on 382 unique human kinases [7] turned out to be 104.01%. Also, the remaining activity at 10 µM on 382 unique human kinases [1] was found to be 108%; at 382 unique human kinases [2], 102%; at 382 unique human kinases [3], 79.7%; on 382 unique human kinases [4], 106%; on 382 unique human kinases [5], 89.6%; at 382 unique human kinases [6] it was 108%. In addition, the remaining activity at 10 µM at 382 unique human kinases [7] is 104%.

For `CCNC(=O)c1noc(-c2cc(C(C)C)c(O)cc2O)c1-c1ccc(CN2CCOCC2)cc1` [Luminespib], the “% Enzyme Activity (relative to DMSO controls)” value was determined as 95.21% at 382 unique human kinases [8] (compound 10 uM), 88.83% at 382 unique human kinases [9], 33.14% on 382 unique human kinases [10] (compound 10 uM) and 105.88% at 382 unique human kinases [11]. The remaining activity at 10 µM at 382 unique human kinases [8] (setting [13]) came out at 97.2%; on 382 unique human kinases [9], 89.5%; on 382 unique human kinases [10] (setting [13]) it was 34.1%; on 382 unique human kinases [11], 106%.
